Assay results taken from article PMC11594329, “Development of LAT1-Selective Nuclear Medicine Therapeutics Using Astatine-211” (International Journal of Molecular Sciences, 2024).

Key:
[1] = Tissue distribution in ICR mice (normal animals); type: in vivo
From the text: (§1) ICR mice (male, 5 weeks old) were purchased from Japan SLC (Shizuoka, Japan) and acclimated for one week prior to use. The doses in the distribution experiments were as follows: ^211At-AAMT-O-Me-L (0.407 ± 0.005 MBq/mouse, 31.64 ± 0.76 g, n = 6), ^211At-AAMT-O-Me-D (0.351 ± 0.004 MBq/mouse, 31.44 ± 0.94 g, n = 6), ^211At-AAMT-O-Et-L (0.685 ± 0.010 MBq/mouse, 24.14 ± 3.31 g, n = 6), ^211At-AAMT-O-Pr-L (1.09 ± 0.06 MBq/mouse, 26.33 ± 0.39 g, n = 6)

[2] = Urinary and fecal excretion in ICR mice; type: in vivo
Experimental: Urinary excretion levels were also examined (Supplementary Table S1). Comparing the D-isomer and L isomer of ^211At-AAMT-O-Me from ICR mice, the D-isomer; 24.84 ± 13.03% ID, L-isomer; 33.69 ± 1.26% ID at 1 h after injection. D-isomer; 71.36 ± 4.67% ID, L-isomer; 23.99 ± 2.40% ID at 3 h after injection. From PANC-1 tumor bearing mice, D-isomer; 35.24 ± 8.70% ID, L-isomer; 20.40 ± 0.76% ID at 1 h after injection. D-isomer; 47.38 ± 3.19% ID, L-isomer; 3.23 ± 0.67% ID at 3 h after injection. In tumor-bearing models, the amount of excretion was smaller than that in normal mice. We have already reported that, in the presence of target cancer tissue for administered drugs, retention in the cancer tissue results in reduced excretion compared with normal animals. […] The same was also observed for feces, but very little was excreted in the feces. The results were as follows: from ICR mice, D-isomer; 0.06 ± 0.03% ID, L-isomer; 0.004 ± 0.003% ID at 1 h after injection. D-isomer; 0.02 ± 0.01% ID, L-isomer; 0.02 ± 0.01% ID at 3 h after injection. From PANC-1 tumor bearing mice, D-isomer; 0.25 ± 0.12% ID, L-isomer; 0.002 ± 0.001% ID at 1 h after injection. D-isomer; 0.75 ± 0.46% ID; L-isomer; 0.07 ± 0.03% ID at 3 h after injection.
as §1

PANC-1 tumor model = experiment: Tissue distribution in nude mice (PANC-1 tumor model); type: in vivo, BALB/c nu/nu mice
How it was run: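 Male 5-week-old BALB/c nu/nu mice bearing subcutaneous PANC-1 xenografts (1 × 10^7 cells/mouse with Matrigel), used once tumors exceeded 50 mm^3. Single doses of ^211At-labelled AAMT derivatives ranged from 135.08 ± 2.35 kBq to 0.927 ± 0.020 MBq per mouse, n = 3–6.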

[3] = nude mice (PANC-1 tumor model), 1 h after injection
[4] = nude mice (PANC-1 tumor model), 3 h after injection
[5] = nude mice (PANC-1 tumor model), 24 h after injection
[6] = nude mice (PANC-1 tumor model), after 24 h

Compound: COc1ccc(C[C@](C)(N)C(=O)O)cc1[211At] [^211At-AAMT-O-Me-L, (S)-2-amino-3-(3-(astato-^211At)-4-methoxyphenyl)-2-methylpropanic acid]
- Tissue distribution, Bladder ([1]; 1 h after injection): 7.10 ± 1.15 %ID/g
- Tissue distribution, Blood ([1]; 1 h after injection): 1.57 ± 0.10 %ID/g
- Tissue distribution, Bone ([1]; 1 h after injection): 1.33 ± 0.16 %ID/g
- Tissue distribution, Brain ([1]; 1 h after injection): 0.32 ± 0.02 %ID/g
- Tissue distribution, Cecum ([1]; 1 h after injection): 0.85 ± 0.04 %ID/g
- Tissue distribution, Colon ([1]; 1 h after injection): 0.93 ± 0.13 %ID/g
- Tissue distribution, Heart ([1]; 1 h after injection): 2.01 ± 0.15 %ID/g
- Tissue distribution, Kidney ([1]; 1 h after injection): 2.47 ± 0.24 %ID/g
- Tissue distribution, Liver ([1]; 1 h after injection): 1.11 ± 0.10 %ID/g
- Tissue distribution, Lung ([1]; 1 h after injection): 6.42 ± 1.52 %ID/g
- Tissue distribution, Pancreas ([1]; 1 h after injection): 1.52 ± 0.17 %ID/g
- Tissue distribution, Salivary glands ([1]; 1 h after injection): 7.16 ± 1.54 %ID/g
- Tissue distribution, Small intestine ([1]; 1 h after injection): 1.82 ± 0.08 %ID/g
- Tissue distribution, Spleen ([1]; 1 h after injection): 5.01 ± 1.42 %ID/g
- Tissue distribution, Stomach ([1]; 1 h after injection): 13.65 ± 2.40 %ID/g
- Tissue distribution, Testis ([1]; 1 h after injection): 2.31 ± 0.04 %ID/g
- Tissue distribution, Thymus ([1]; 1 h after injection): 2.03 ± 0.50 %ID/g
- Tissue distribution, Thyroid ([1]; 1 h after injection): 13.12 ± 1.72 %ID/g
- Tissue distribution, Bladder ([1]; 3 h after injection): 0.10 ± 0.01 %ID/g
- Tissue distribution, Blood ([1]; 3 h after injection): 1.17 ± 0.24 %ID/g
- Tissue distribution, Bone ([1]; 3 h after injection): 0.53 ± 1.31 %ID/g
- Tissue distribution, Brain ([1]; 3 h after injection): 0.10 ± 0.02 %ID/g
- Tissue distribution, Cecum ([1]; 3 h after injection): 0.95 ± 0.11 %ID/g
- Tissue distribution, Colon ([1]; 3 h after injection): 0.80 ± 0.12 %ID/g
- Tissue distribution, Heart ([1]; 3 h after injection): 0.34 ± 0.02 %ID/g
- Tissue distribution, Kidney ([1]; 3 h after injection): 1.11 ± 0.15 %ID/g
- Tissue distribution, Liver ([1]; 3 h after injection): 2.57 ± 0.17 %ID/g
- Tissue distribution, Lung ([1]; 3 h after injection): 1.34 ± 0.32 %ID/g
- Tissue distribution, Pancreas ([1]; 3 h after injection): 0.19 ± 0.04 %ID/g
- Tissue distribution, Salivary glands ([1]; 3 h after injection): 1.77 ± 0.19 %ID/g
- Tissue distribution, Small intestine ([1]; 3 h after injection): 3.91 ± 0.20 %ID/g
- Tissue distribution, Spleen ([1]; 3 h after injection): 0.80 ± 0.19 %ID/g
- Tissue distribution, Stomach ([1]; 3 h after injection): 16.96 ± 1.89 %ID/g
- Tissue distribution, Testis ([1]; 3 h after injection): 0.52 ± 0.06 %ID/g
- Tissue distribution, Thymus ([1]; 3 h after injection): 0.14 ± 0.03 %ID/g
- Tissue distribution, Thyroid ([1]; 3 h after injection, listed as L-Isomer): 0.65 ± 0.16 %ID/g
- Excretion in feces ([2]; 1 h after injection): 0.004 ± 0.003 % ID
- Urinary excretion ([2]; 1 h after injection): 33.69 ± 1.26 % ID
- Excretion in feces ([2]; 3 h after injection): 0.02 ± 0.01 % ID
- Urinary excretion ([2]; 3 h after injection): 23.99 ± 2.40 % ID
- Tissue distribution, Bladder (PANC-1 tumor model; [3]): 0.06 ± 0.00 %ID/g
- Tissue distribution, Blood (PANC-1 tumor model; [3]): 7.85 ± 1.17 %ID/g
- Tissue distribution, Bone (PANC-1 tumor model; [3]): 0.68 ± 1.27 %ID/g
- Tissue distribution, Brain (PANC-1 tumor model; [3]): 0.46 ± 0.00 %ID/g
- Tissue distribution, Cecum (PANC-1 tumor model; [3]): 0.46 ± 0.05 %ID/g
- Tissue distribution, Colon (PANC-1 tumor model; [3]): 1.14 ± 0.27 %ID/g
- Tissue distribution, Heart (PANC-1 tumor model; [3]): 0.86 ± 0.04 %ID/g
- Tissue distribution, Kidney (PANC-1 tumor model; [3]): 3.56 ± 0.09 %ID/g
- Tissue distribution, Liver (PANC-1 tumor model; [3]): 4.92 ± 0.24 %ID/g
- Tissue distribution, Lung (PANC-1 tumor model; [3]): 5.16 ± 0.11 %ID/g
- Tissue distribution, Pancreas (PANC-1 tumor model; [3]): 0.58 ± 0.01 %ID/g
- Tissue distribution, Salivary glands (PANC-1 tumor model; [3]): 0.58 ± 0.05 %ID/g
- Tissue distribution, Small intestine (PANC-1 tumor model; [3]): 3.40 ± 0.36 %ID/g
- Tissue distribution, Spleen (PANC-1 tumor model; [3]): 4.34 ± 0.79 %ID/g
- Tissue distribution, Stomach (PANC-1 tumor model; [3]): 1.32 ± 0.06 %ID/g
- Tissue distribution, Testis (PANC-1 tumor model; [3]): 0.55 ± 0.02 %ID/g
- Tissue distribution, Thyroid (PANC-1 tumor model; [3]): 0.20 ± 0.02 %ID/g
- Tissue distribution, Tumor (PANC-1 tumor model; [3]): 7.83 ± 0.30 %ID/g
- Tissue distribution, Bladder (PANC-1 tumor model; [4]): 0.09 ± 0.01 %ID/g
- Tissue distribution, Blood (PANC-1 tumor model; [4]): 10.38 ± 2.28 %ID/g
- Tissue distribution, Bone (PANC-1 tumor model; [4]): 0.51 ± 1.35 %ID/g
- Tissue distribution, Brain (PANC-1 tumor model; [4]): 0.29 ± 0.01 %ID/g
- Tissue distribution, Cecum (PANC-1 tumor model; [4]): 0.43 ± 0.16 %ID/g
- Tissue distribution, Colon (PANC-1 tumor model; [4]): 0.68 ± 0.23 %ID/g
- Tissue distribution, Heart (PANC-1 tumor model; [4]): 0.76 ± 0.07 %ID/g
- Tissue distribution, Kidney (PANC-1 tumor model; [4]): 2.29 ± 0.07 %ID/g
- Tissue distribution, Liver (PANC-1 tumor model; [4]): 4.62 ± 0.20 %ID/g
- Tissue distribution, Lung (PANC-1 tumor model; [4]): 5.10 ± 0.42 %ID/g
- Tissue distribution, Pancreas (PANC-1 tumor model; [4]): 0.36 ± 0.10 %ID/g
- Tissue distribution, Salivary glands (PANC-1 tumor model; [4]): 0.78 ± 0.18 %ID/g
- Tissue distribution, Small intestine (PANC-1 tumor model; [4]): 2.50 ± 0.42 %ID/g
- Tissue distribution, Spleen (PANC-1 tumor model; [4]): 3.97 ± 0.59 %ID/g
- Tissue distribution, Stomach (PANC-1 tumor model; [4]): 1.31 ± 0.32 %ID/g
- Tissue distribution, Testis (PANC-1 tumor model; [4]): 0.55 ± 0.11 %ID/g
- Tissue distribution, Thyroid (PANC-1 tumor model; [4]): 0.23 ± 0.04 %ID/g
- Tissue distribution, Tumor (PANC-1 tumor model; [4]): 10.29 ± 0.88 %ID/g
- Tissue distribution, Bladder (PANC-1 tumor model; [5]): 0.55 ± 0.13 %ID/g
- Tissue distribution, Blood (PANC-1 tumor model; [5]): 0.88 ± 0.23 %ID/g
- Tissue distribution, Bone (PANC-1 tumor model; [5]): 0.75 ± 0.18 %ID/g
- Tissue distribution, Brain (PANC-1 tumor model; [5]): 0.13 ± 0.04 %ID/g
- Tissue distribution, Cecum (PANC-1 tumor model; [5]): 2.09 ± 0.41 %ID/g
- Tissue distribution, Colon (PANC-1 tumor model; [5]): 1.69 ± 0.15 %ID/g
- Tissue distribution, Heart (PANC-1 tumor model; [5]): 1.29 ± 0.42 %ID/g
- Tissue distribution, Kidney (PANC-1 tumor model; [5]): 1.67 ± 0.49 %ID/g
- Tissue distribution, Liver (PANC-1 tumor model; [5]): 0.92 ± 0.15 %ID/g
- Tissue distribution, Lung (PANC-1 tumor model; [5]): 4.43 ± 1.76 %ID/g
- Tissue distribution, Pancreas (PANC-1 tumor model; [5]): 0.59 ± 0.17 %ID/g
- Tissue distribution, Salivary glands (PANC-1 tumor model; [5]): 13.65 ± 5.31 %ID/g
- Tissue distribution, Small intestine (PANC-1 tumor model; [5]): 1.49 ± 0.29 %ID/g
- Tissue distribution, Spleen (PANC-1 tumor model; [5]): 3.12 ± 2.06 %ID/g
- Tissue distribution, Stomach (PANC-1 tumor model; [5]): 8.89 ± 2.65 %ID/g
- Tissue distribution, Testis (PANC-1 tumor model; [5]): 1.18 ± 0.25 %ID/g
- Tissue distribution, Thyroid (PANC-1 tumor model; [5]): 9.37 ± 3.33 %ID/g
- Tissue distribution, Tumor (PANC-1 tumor model; [5]): 1.86 ± 0.39 %ID/g
- Accumulation remaining in tumors relative to ^211At-AAMT-OH-L (PANC-1 tumor model; [6]): 2.6 times
- Blood intensity relative to ^211At-AAMT-OH-L (PANC-1 tumor model; [6]): 22 times
- Increase of blood intensity in tumor-bearing mice compared with normal animals (PANC-1 tumor model; tumor-bearing mice versus ICR mice): 5 fold
